Results: PubChem BioAssay AID179 (DTP/NCI, 2004)
Active and inactive are the calls of the source.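 How the source made its calls: active means compounds giving half or more protection of infected cells from virus-caused growth loss, again on retest; inactive means the rest.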 Where a SMILES comes first, the peptide text is derived from it.

Test system: CEM cells HIV-1 protection, formazan growth assay
Experiment: NCI AIDS Antiviral Assay
Conditions: for IC50: measured here: growth of uninfected CEM cells
Outline: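 Five concentrations of each compound were applied to infected and uninfected human CEM cells. Protection from HIV-1 was judged from growth measured with a soluble formazan assay.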

Row | SMILES | EC50 | IC50 | outcome
1 | O=C1c2cccn2-c2ccccc2OC1(CC1CC1)c1ccccc1 (stereo not given) | > 200 µM | 11.5 µM | –
2 | COc1ccc(-c2cc(C(=O)Nc3cc(C(F)(F)F)cc(C(F)(F)F)c3)c3ccccc3n2)cc1 | > 14.8 µM | > 14.8 µM | –
3 | O=C(Cc1ccccc1)NN1C(=O)C(Cl)C1c1ccccc1Cl (stereo not given) | > 28.8 µM | > 28.8 µM | –
4 | CN=C1Nc2ccccc2C(=O)N2CSCC12 (stereo not given) | > 200 µM | > 200 µM | –
5 | CNC(=S)OCCC(C)CCCC(C)C (stereo not given) | – | – | inactive
6 | COc1cc2c(c(OC)c1OC)-c1ccc(OC)c(=O)cc1C(NC1=C(Cl)C(=O)c3ccccc3C1=O)CC2 (stereo not given) | > 174 µM | 0.0562 µM | –
7 | CCSC1=C(C#N)C2(CCCCC2)C2=C(CC(C)(C)CC2=O)N1 | > 200 µM | > 200 µM | –
8 | COc1ccc(C(=O)C2=NON3OC23C(=O)c2ccc(OC)cc2)cc1 (stereo not given) | > 38 µM | 6.76 µM | –
9 | [O-][n+]1c2ccccc2cc2c1c1ccccc1n2O | > 20.9 µM | > 20.9 µM | –
10 | Fc1ccc(C2NC(c3ccc(Cl)cc3)c3cccn3-c3sccc32)cc1 (stereo not given) | > 100 µM | 79.4 µM | –
11 | Cc1csc2[n+]1C(=O)/C(=C\c1ccc([N+](=O)[O-])cc1)S2 | > 200 µM | 29.5 µM | –
12 | CC(=O)Nc1ccc(/C=C2\C=Cc3ccccc32)cc1 | > 20 µM | 13.2 µM | –
13 | COC(=O)CCC(=O)Nc1ccc(Cl)cc1C | – | – | inactive
14 | O=[N+]([O-])c1ccc(Sc2c3ccccc3nc3ccccc23)cc1 | > 4.37 µM | > 4.37 µM | –
15 | O=c1c(SCc2ccc(F)cc2)c(SCc2ccc(F)cc2)cnn1-c1ccccc1 | > 15.8 µM | > 15.8 µM | –
16 | CN1C=C(C(N)=O)C2CC(O)[C@@](NC(=O)CS(N)(=O)=O)(C(=O)O)C2C1 (stereo not given in full) | > 166 µM | 3.72 µM | –
17 | O=C(/C(=C/c1ccc(Cl)cc1)c1ccccc1)c1ccccc1 | > 8.51 µM | > 8.51 µM | –
18 | C#CCN(N=O)C(=O)NCCCCC(NC(C)=O)C(=O)NCc1ccccc1 (stereo not given) | > 646 µM | 56.2 µM | –
19 | CN(C)c1ccc(/C=C/c2sc3ccccc3[n+]2C)cc1 | > 47.9 µM | 0.575 µM | –
20 | O=C(CCn1ccnc1[N+](=O)[O-])NCCCn1ccnc1[N+](=O)[O-] | > 200 µM | > 200 µM | –
21 | NC(N)=NS(=O)(=O)c1ccc(NC(=O)c2cccc3cc4ccccc4nc23)cc1 | > 53.7 µM | 16.2 µM | –

Row | SMILES | EC50 | IC50 | outcome
22 | Nn1c(SSSSc2nnc(-c3ccccc3)n2N)nnc1-c1ccccc1 | > 200 µM | > 200 µM | –
23 | Cc1ccc(/C(O)=C/c2nc3ccccc3nc2NC23CC4CC(CC(C4)C2)C3)cc1 | > 200 µM | > 200 µM | –
24 | C/C=C/CC1(C(C)C)C(=O)NC(=S)NC1=O | > 200 µM | > 200 µM | –
25 | O=C(Nc1ccc(S(=O)(=O)Nc2ccc(N=Nc3ccccc3)cc2)cc1)C(SC1=NC=NC2=NC=NC21)SC1=NC=NC2=NC=NC21 (stereo not given) | > 20 µM | 3.16 µM | –
26 | Nc1ccc2cc(S(=O)(=O)O)c(N=Nc3ccc(-c4ccc(N=Nc5c(S(=O)(=O)O)cc6cc(S(=O)(=O)O)c(N=Nc7cccc([N+](=O)[O-])c7)c(N)c6c5O)cc4)cc3)c(O)c2c1 | – | – | active
27 | CC(C)CCCC(C)[C@H]1CC[C@H]2[C@@H]3CC[C@H]4C[C@@H](CCC=C(c5cc(Cl)c(OCc6ccc(B(O)O)cc6)c(C(=O)O)c5)c5cc(Cl)c(OCc6ccc(B(O)O)cc6)c(C(=O)O)c5)CC[C@]4(C)[C@H]3CC[C@]12C (stereo not given in full) | 5.89 µM | 93.3 µM | –
28 | CCCCN(CCC/C=C/OC)C(C#N)c1ccccc1 (stereo not given) | > 871 µM | > 871 µM | –
29 | Cc1ccnc(NC(=O)Nc2cc(F)ccc2F)c1 | > 200 µM | > 200 µM | –
30 | c1ccc2c(C3NCCc4[nH]cnc43)cccc2c1 (stereo not given) | > 525 µM | > 525 µM | –
31 | O=c1c2cc(S(=O)(=O)Nc3ccccc3Cl)ccc2ncn1NS(=O)(=O)c1ccc(Br)cc1 | – | – | inactive
32 | CC/C=C(\C)C(CCC)(CN=O)C(=O)OCC (stereo not given) | – | – | inactive
33 | O=C(O)c1ccccc1/C=N\NC1=NCCN1 | 69.2 µM | 115 µM | –
34 | CC(=O)C(C(=O)C(C)(C)C)C(=O)C(C)(C)C | > 200 µM | > 200 µM | –
35 | c1ccc(C2=NC3(CCCCC3)N=C2c2ccccc2)cc1 | > 200 µM | 135 µM | –
36 | Oc1cc2ccccc2c2sc(-c3ccccc3)c(-c3ccccc3)[n+]12 | > 200 µM | 17.8 µM | –
37 | COC([C@@H](OC(=O)c1ccccc1)[C@H](OC(=O)c1ccccc1)C(O)COC(=O)c1ccccc1)n1cc(C)c(=O)[nH]c1=O (stereo not given in full) | > 200 µM | 13.2 µM | –
38 | CCOC(=O)CCCNC(=O)CCCCC(=O)N(C)C | > 200 µM | > 200 µM | –
39 | Cc1cccc2c1C(=O)C(C1OC(=O)c3ccccc31)C2 (stereo not given) | > 100 µM | > 100 µM | –
40 | CCC(C)C(NC(=O)C1CCCN1C(=O)C(Cc1ccc(O)cc1)NC(=O)C(CC(N)=O)NC(=O)C(CCC(N)=O)NC(=O)C(CO)NC(=O)C(N)C(C)C)C(=O)NC(CC(C)C)C(=O)NC(CCC(N)=O)C(N)=O (stereo not given) (H-VSQNYPILQ-NH2; configuration not given here) | > 58.9 µM | > 58.9 µM | –
41 | [N-]=[N+]=NS(=O)(=O)c1cccc([N+](=O)[O-])c1 | – | – | inactive
42 | Cn1c(=O)nc2n(-c3ccc(Cl)cc3)c3cc(Cl)ccc3nc-2c1=O | – | – | inactive

Row | SMILES | EC50 | IC50 | outcome
43 | CC1N=C(SCC(=O)c2ccc(Cl)cc2)N2C(C)N=C(SCC(=O)c3ccc(Cl)cc3)N12 (stereo not given) | > 19.5 µM | > 19.5 µM | –
44 | CC1(C)OC2OC(CO)C(N)C2O1 (stereo not given) | – | – | inactive
45 | CCOC(=O)N1CCN(c2nc(C)n(-c3ccccc3)c(=S)c2C#N)CC1 | > 200 µM | > 200 µM | –
46 | C=C1CN(S(=O)(=O)c2ccc(C)cc2)CCCN(CCC)CCCN(S(=O)(=O)c2ccc(C)cc2)C1 | > 200 µM | 2.95 µM | –
47 | COc1c(Cl)cc(Cc2cc(C(=CCC[C@H]3CC[C@@]4(C)[C@@H](CC[C@@H]5[C@@H]4CC[C@]4(C)[C@@H](C(C)CCCC(C)C)CC[C@@H]54)C3)c3cc(Cc4cc(Cl)c(OC)c(C(=O)O)c4)c(OC)c(C(=O)O)c3)cc(C(=O)O)c2OC)cc1C(=O)O (stereo not given in full) | 16.2 µM | 107 µM | –
48 | CC(NNC(=O)CC(=O)N(C(=O)c1ccccc1)c1ccc(Cl)cc1)c1cc2ccccc2oc1=O (stereo not given) | > 200 µM | > 200 µM | –
49 | O=C(O)CCC(=O)NC(c1ccccc1)(c1ccccc1)c1ccccc1 | > 200 µM | > 200 µM | –
50 | C#C[C@]1(O)CCCC2=CC(=O)CC[C@@]21C | – | – | inactive
51 | CC(=O)OC1c2ccccc2C2c3ccccc3C1C2(C)C(Cl)(Cl)Cl (stereo not given) | > 13.2 µM | > 13.2 µM | –
52 | CCOC(=O)C(=O)Nc1cccc(C)c1C | > 813 µM | > 813 µM | –
53 | CC(=O)Nc1c(C#N)c2n(c1C(=O)O)CCC2 | > 200 µM | > 200 µM | –
54 | COc1ccc(/C=N/NC(=O)c2ccc(O)c(CN(C)C)c2)cc1 | > 200 µM | > 200 µM | –
55 | OC(C1CCC=NN1C(O)(C(F)(F)F)C(F)(F)F)(C(F)(F)F)C(F)(F)F (stereo not given) | > 200 µM | 26.9 µM | –
56 | CCCCN(CC)C(=O)COc1cc2c(O)c3c(O)c(C)c4c(c13)C(=O)C(C)(O/C=C\C(OC)C(C)C(OC(C)=O)C(C)C(O)C(C)C(O)C(C)/C=C\C=C(\C)C(=O)N2)O4 (stereo not given) | – | – | inactive
57 | Cc1ccc(N2C(N)=C(C#N)C(C#N)(C#N)C2c2ccccc2)cc1 (stereo not given) | > 200 µM | 2.82 µM | –
58 | CCOP(=O)(CN=C(c1ccccc1)c1ccccc1)OCC | > 200 µM | > 200 µM | –
59 | CC(C)(C)c1ccc(O)c(C(O)c2ccncc2)c1 (stereo not given) | > 200 µM | 79.4 µM | –
60 | O=C1c2n[nH]nc2C(=O)c2n[nH]nc21 | > 200 µM | > 200 µM | –
61 | COc1cc2c(cc1O)C1(C(=O)c3ccc4c(c3[C@H]1O)OCO4)N(C)CC2 (stereo not given in full) | – | – | inactive
62 | CN1C(c2ccccc2)N1C (stereo not given) | > 1700 µM | > 1700 µM | –
63 | Cc1csc(N2C(=O)c3cccc4cccc(c34)C2=O)n1 | > 200 µM | 64.6 µM | –

Row | SMILES | EC50 | IC50 | outcome
64 | COc1ccc(-c2cncc(-c3ccc(OC)c(OC)c3)c2)cc1OC | > 20.4 µM | > 20.4 µM | –
65 | Cc1ccc2cc(NC(=O)CBr)c3ccc(C)nc3c2n1 | > 2 µM | 0.955 µM | –
66 | CC1=C2CN(C(=O)OCC(C)C)CCC2C2=C(C(=O)c3ccccc3C2=O)C1C (stereo not given) | > 100 µM | > 100 µM | –
67 | NC(=S)N/N=C\C12CC3CC(CC(C3)C1)C2 | – | – | inactive
68 | O=C(O)c1cc2ccccc2c(N=Nc2ccc(S(=O)(=O)Nc3nccs3)cc2)c1O | > 200 µM | 155 µM | –
69 | Cc1cc(C)n(-c2c(O)ccc(O)c2-n2nc(C)cc2C)n1 | > 229 µM | 120 µM | –
70 | CC(=O)N=C1N(/C=C2\C(=O)Oc3ccccc3C2=O)C(=O)/C(=C/c2ccc(NC(C)=O)cc2)N1C | > 200 µM | > 200 µM | –
71 | Cc1ccc(S(=O)(=O)NNC2Oc3cc4c(cc3C(c3ccccc3O)C2C)OCO4)cc1 (stereo not given) | > 200 µM | 26.3 µM | –
72 | CCCCCCCCSC(SCCCCCCCC)=C1C(=O)N(c2ccccc2)N=C1C | > 28.8 µM | > 28.8 µM | –
73 | CN(C)CCOCn1nnc2ccccc21 | – | – | inactive
74 | CS(=O)(=O)N(N(CCCl)S(=O)(=O)c1ccccc1)S(C)(=O)=O | > 126 µM | 79.4 µM | –
75 | Cc1ccc2nc3cc(C)c(=O)cc-3sc2c1 | > 56.2 µM | 37.2 µM | –
76 | O=c1oc2ccccc2c(O)c1C(c1ccc(C(c2c(O)c3ccccc3oc2=O)c2c(O)c3ccccc3oc2=O)cc1)c1c(O)c2ccccc2oc1=O | > 200 µM | 50.1 µM | –
77 | O=C(/C=C1/Nc2ccc([N+](=O)[O-])cc2NC1O)c1cccc([N+](=O)[O-])c1 (stereo not given) | > 20.4 µM | > 20.4 µM | –
78 | CC(C)c1nsc(N)c1C(N)=O | > 200 µM | > 200 µM | –
79 | N#Cc1c(C#N)c(-c2ccco2)n(/N=C/c2ccco2)c1N | > 200 µM | > 200 µM | –
80 | O=C(c1cccc(OCc2ccccc2)c1OCc1ccccc1)N1CCSC1=S | > 200 µM | 9.12 µM | –
81 | Nc1ccc(C(=O)NN2C(=O)C(Cl)C2c2cccc([N+](=O)[O-])c2)cc1 (stereo not given) | > 200 µM | 10.2 µM | –
82 | COc1ccc(CC(=O)c2ccc(O)cc2O)cc1 | > 200 µM | 81.3 µM | –
83 | CCC12CN(C(=O)OC)C3C(Br)C1CCC(=O)C32 (stereo not given) | > 200 µM | 178 µM | –
84 | CCOC(=O)/C(=C/c1ccccc1)N(CC)CC | > 55 µM | > 55 µM | –
